# System: Bacillus subtilis ATCC 6633
# Test: disc plate method (Table 2)
# Format: cell-based
# Details: Bacillus subtilis, ATCC6633, 1 mg/ml; paper disc 8 mm; Bacillus subtilis ATCC 6633 (Table 2); read-out: Inhibition zone (diameter)
# Description: (§1) Tables 1 and 2 show the antibacterial spectra of the antibiotics KA-6606 VII to KA-6606 XVII against various bacteria, determined by the disc plate method, in comparison with the KA-6606 II substance. Each of the chemicals is used as impregnated in a paper disc having a diameter of 8 mm.
row,SMILES,zone of inhibition at 1000 µg/mL
1,CNC1C(OC)CC(N)C(OC2OC(CN)CCC2N)C1O (stereo not shown) [KA-6606 XIV],19.1 mm

# Same assay, conditions: Bacillus subtilis, ATCC6633, 10 mg/ml; paper disc 8 mm; Bacillus subtilis ATCC 6633; read-out: Inhibition zone (diameter)
row,SMILES,zone of inhibition at 10000 µg/mL
1,CNC1C(OC)CC(NC(N)=O)C(OC2OC(C(C)N)CCC2N)C1O (stereo not shown) [KA-6606 XVII],17.3 mm
2,CNC1C(O)CC(N)C(OC2OC(CO)C(O)C(O)C2N)C1O (stereo not shown) [KA-6606 XII],17.7 mm

# System: Proteus inconstans
# Test: disc plate method (Table 2)
# Format: cell-based
# Details: Providencia alcalifaciens, 1 mg/ml; paper disc 8 mm; Proteus inconstans (Table 2); read-out: Inhibition zone (diameter)
# Description: as §1
row,SMILES,zone of inhibition at 1000 µg/mL
1,CNC1C(OC)CC(N)C(OC2OC(CN)CCC2N)C1O (stereo not shown) [KA-6606 XIV],8.5 mm

# System: Klebsiella pneumoniae PCI 602
# Test: disc plate method (Table 2)
# Format: cell-based
# Details: Klebsiella pneumoniae, PCI602, 1 mg/ml, paper disc 8 mm, read-out: Inhibition zone (diameter)
# Description: as §1
row,SMILES,zone of inhibition at 1000 µg/mL
1,CNC1C(OC)CC(N)C(OC2OC(CN)CCC2N)C1O (stereo not shown) [KA-6606 XIV],9.5 mm

# System: Pseudomonas aeruginosa NCTC 10490
# Test: disc plate method (Table 2)
# Format: cell-based
# Details: Pseudomonas aeruginosa, NCTC10490, 1 mg/ml, paper disc 8 mm, read-out: Inhibition zone (diameter)
# Description: as §1
row,SMILES,zone of inhibition at 1000 µg/mL
1,CNC1C(OC)CC(N)C(OC2OC(CN)CCC2N)C1O (stereo not shown) [KA-6606 XIV],9.2 mm

# Same assay, conditions: Pseudomonas aeruginosa, NCTC10490, 10 mg/ml, paper disc 8 mm, read-out: Inhibition zone (diameter)
row,SMILES,zone of inhibition at 10000 µg/mL
1,CNC1C(OC)CC(NC(N)=O)C(OC2OC(C(C)N)CCC2N)C1O (stereo not shown) [KA-6606 XVII],10.1 mm
2,CNC1C(O)CC(N)C(OC2OC(CO)C(O)C(O)C2N)C1O (stereo not shown) [KA-6606 XII],9.3 mm

# System: Proteus vulgaris OX-107
# Test: disc plate method (Table 2)
# Format: cell-based
# Details: Proteus vulgaris, OX107, 1 mg/ml, paper disc 8 mm, read-out: Inhibition zone (diameter)
# Description: as §1
row,SMILES,zone of inhibition at 1000 µg/mL
1,CNC1C(OC)CC(N)C(OC2OC(CN)CCC2N)C1O (stereo not shown) [KA-6606 XIV],12 mm

# Same assay, conditions: Proteus vulgaris, OX107, 10 mg/ml, paper disc 8 mm, read-out: Inhibition zone (diameter)
row,SMILES,zone of inhibition at 10000 µg/mL
1,CNC1C(OC)CC(NC(N)=O)C(OC2OC(C(C)N)CCC2N)C1O (stereo not shown) [KA-6606 XVII],16.8 mm
2,CNC1C(O)CC(N)C(OC2OC(CO)C(O)C(O)C2N)C1O (stereo not shown) [KA-6606 XII],9.3 mm

# System: Serratia marcescens NHL
# Test: disc plate method (Table 2)
# Format: cell-based
# Details: Serratia marcescens, 1 mg/ml, paper disc 8 mm, read-out: Inhibition zone (diameter)
# Description: as §1
row,SMILES,zone of inhibition at 1000 µg/mL
1,CNC1C(OC)CC(N)C(OC2OC(CN)CCC2N)C1O (stereo not shown) [KA-6606 XIV],13.5 mm

# Same assay, conditions: Serratia marcescens, 10 mg/ml, paper disc 8 mm, read-out: Inhibition zone (diameter)
row,SMILES,zone of inhibition at 10000 µg/mL
1,CNC1C(OC)CC(NC(N)=O)C(OC2OC(C(C)N)CCC2N)C1O (stereo not shown) [KA-6606 XVII],13.6 mm
2,CNC1C(O)CC(N)C(OC2OC(CO)C(O)C(O)C2N)C1O (stereo not shown) [KA-6606 XII],9.8 mm

# System: Staphylococcus aureus 209D-JC-1
# Test: disc plate method (Table 2)
# Format: cell-based
# Details: Staphylococcus aureus, 209DJC1, 1 mg/ml, paper disc 8 mm, read-out: Inhibition zone (diameter)
# Description: as §1
row,SMILES,zone of inhibition at 1000 µg/mL
1,CNC1C(OC)CC(N)C(OC2OC(CN)CCC2N)C1O (stereo not shown) [KA-6606 XIV],17.1 mm

# Same assay, conditions: Staphylococcus aureus, 209DJC1, 10 mg/ml, paper disc 8 mm, read-out: Inhibition zone (diameter)
row,SMILES,zone of inhibition at 10000 µg/mL
1,CNC1C(OC)CC(NC(N)=O)C(OC2OC(C(C)N)CCC2N)C1O (stereo not shown) [KA-6606 XVII],14.2 mm
2,CNC1C(O)CC(N)C(OC2OC(CO)C(O)C(O)C2N)C1O (stereo not shown) [KA-6606 XII],16.8 mm

# System: Escherichia coli NIHJ JC-2
# Test: disc plate method (Table 2)
# Format: cell-based
# Details: Escherichia coli, NIHJJC2, 1 mg/ml, paper disc 8 mm, read-out: Inhibition zone (diameter)
# Description: as §1
row,SMILES,zone of inhibition at 1000 µg/mL
1,CNC1C(OC)CC(N)C(OC2OC(CN)CCC2N)C1O (stereo not shown) [KA-6606 XIV],11.8 mm

# Same assay, conditions: Escherichia coli, NIHJJC2, 10 mg/ml, paper disc 8 mm, read-out: Inhibition zone (diameter)
row,SMILES,zone of inhibition at 10000 µg/mL
1,CNC1C(OC)CC(NC(N)=O)C(OC2OC(C(C)N)CCC2N)C1O (stereo not shown) [KA-6606 XVII],10.7 mm
2,CNC1C(O)CC(N)C(OC2OC(CO)C(O)C(O)C2N)C1O (stereo not shown) [KA-6606 XII],9.2 mm

# System: not listed separately
# Test: Solubility in solvents
# Format: physicochemical
# Details: chloroform
row,Solubility in solvents: chloroform,SMILES
1,Insoluble,CNC1C(OC)CC(NC(N)=O)C(OC2OC(C(C)N)CCC2N)C1O (stereo not shown) [KA-6606 XVII]
2,Insoluble,CNC1C(OC)CC(N)C(OC2OC(CN)CCC2N)C1O (stereo not shown) [KA-6606 XIV]
3,Insoluble,CNC1C(O)CC(N)C(OC2OC(CO)C(O)C(O)C2N)C1O (stereo not shown) [KA-6606 XII]

# Same assay, conditions: ethyl acetate
row,Solubility in solvents: ethyl acetate,SMILES
1,Insoluble,CNC1C(OC)CC(NC(N)=O)C(OC2OC(C(C)N)CCC2N)C1O (stereo not shown) [KA-6606 XVII]
2,Insoluble,CNC1C(OC)CC(N)C(OC2OC(CN)CCC2N)C1O (stereo not shown) [KA-6606 XIV]
3,Insoluble,CNC1C(O)CC(N)C(OC2OC(CO)C(O)C(O)C2N)C1O (stereo not shown) [KA-6606 XII]

# Same assay, conditions: methanol
row,Solubility in solvents: methanol,SMILES
1,Easily soluble,CNC1C(OC)CC(NC(N)=O)C(OC2OC(C(C)N)CCC2N)C1O (stereo not shown) [KA-6606 XVII]
2,Easily soluble,CNC1C(OC)CC(N)C(OC2OC(CN)CCC2N)C1O (stereo not shown) [KA-6606 XIV]

# Same assay, conditions: water
row,Solubility in solvents: water,SMILES
1,Easily soluble,CNC1C(OC)CC(NC(N)=O)C(OC2OC(C(C)N)CCC2N)C1O (stereo not shown) [KA-6606 XVII]
2,Easily soluble,CNC1C(OC)CC(N)C(OC2OC(CN)CCC2N)C1O (stereo not shown) [KA-6606 XIV]
3,Easily soluble,CNC1C(O)CC(N)C(OC2OC(CO)C(O)C(O)C2N)C1O (stereo not shown) [KA-6606 XII]

# System: not listed separately
# Test: Stability
# Format: physicochemical
# Details: pH range in which stable
row,Stability (stable at pH),SMILES
1,2-10 pH,CNC1C(OC)CC(NC(N)=O)C(OC2OC(C(C)N)CCC2N)C1O (stereo not shown) [KA-6606 XVII]
2,2-10 pH,CNC1C(OC)CC(N)C(OC2OC(CN)CCC2N)C1O (stereo not shown) [KA-6606 XIV]
3,2-10 pH,CNC1C(O)CC(N)C(OC2OC(CO)C(O)C(O)C2N)C1O (stereo not shown) [KA-6606 XII]
